Measured values taken from patent publication US20230340417A1, “DEFINED MATRIX FOR THE DIFFERENTIATION OF ISLETS” (Washington University, priority 2022, published 2023).
“Also recorded” adds a separate entry of the source.

Legend:
stem cells = experiment: Adhesion of cells to plates coated with different extracellular matrix proteins during differentiation; type: cell-based, human; settings: for adherence of seeding stem cells to the ECM to start differentiation: FIG. 11; for attachment of cells to the plate in early differentiation stages: stage 1 and 2, ECM protein used alone; for time at which cells came off the plate: stage/day of protocol (s = stage, d = day)
Description: (§1) Experiment goal: test if our SC-β cell differentiation method works with different extracellular matrix proteins. Stem cells were propagated on Matrigel as normal. Cells were plated on the different ECMs when seeding the differentiations. For the combinations of laminin 111 and collagen IV, the total protein concentration was kept the same. The ratio of these was changed from 3:1, 1:1, and 1:3. Some of the ECMs induced the cells to form clusters on the plate in stage 6, so some clusters were scrapped off instead of aggregating them for comparison. The differentiation protocol utilized was previously published (Hogrebe et al Nature Biotechnology 2020; Hogrebe et al Nature Protocols 2021; and WO 2019/222487) and modified to include different ECM proteins.

[1] = system: human pluripotent stem cells; experiment: SC-β cell differentiation on different extracellular matrix proteins; type: cell-based; settings: for outcome of differentiation of stem cells to SC-β cells: cells plated on the ECM when seeding the differentiation
Description: as §1

collagen 1: extracellular matrix protein tested as plate coating for differentiation
adherence of seeding stem cells to the ECM to start differentiation (stem cells): weren't as adhesive | attachment of cells to the plate in early differentiation stages (stem cells): detached completely | attachment of cells to the plate in early differentiation stages (stem cells; listed as collagen I): monolayer of stem cells detaching from the plate | time at which cells came off the plate (stem cells): came off on s2d1

collagen IV: extracellular matrix protein tested as plate coating, alone or combined with laminin 111
attachment of cells to the plate in early differentiation stages (stem cells): detached completely; also recorded: monolayer of stem cells detaching from the plate | adhesion of endocrine cells to the plate (stem cells; stage 6): makes the endocrine cells stick to the plate | time at which cells came off the plate (stem cells): started coming off on s1d3

fibronectin
outcome of differentiation of stem cells to SC-β cells [1]: failed | adherence of seeding stem cells to the ECM to start differentiation (stem cells): do not effectively adhere

B1: vitronectin: extracellular matrix protein tested as plate coating for differentiation (protein, UniProt P04004 20-478, looked up)
Vitronectin: DQESCKGRCTEGFNVDKKCQCDELCSYYQSCCTDYTAECKPQVTRGDVFTMPEDEYTVYDDGEEKNNATVHEQVGGPSLTSDLQAQSKGNPEQTPVLKPEEEAPAPEVGASKPEGIDSRPETLHPGRPQPPAEEELCSGKPFDAFTDLKNGSLFAFRGQYCYELDEKAVRPGYPKLIRDVWGIEGPIDAAFTRINCQGKTYLFKGSQYWRFEDGVLDPDYPRNISDGFDGIPDNVDAALALPAHSYSGRERVYFFKGKQYWEYQFQHQPSQEECEGSSLSAVFEHFAMMQRDSWEDIFELLFWGRTSAGTRQPQFISRDWHGVPGQVDAAMAGRIYISGMAPRPSLAKKQRFRHRNRKGYRSQRGHSRGRNQNSRRPSRATWLSLFSSEESNLGANNYDDYRMDWLVPATCEPIQSVFFFSGDKYYRVNLRTRRVDTVDPPYPRSIAQYWLGCPAPGHL
outcome of differentiation of stem cells to SC-β cells [1]: failed | cell types obtained ([1]; differentiations done on vitronectin only, FIG. 12): a lot of off-target cell types and no endocrine cells | adherence of seeding stem cells to the ECM to start differentiation (stem cells): do effectively adhere
